Measured values reported in patent US6492124B1, “Trance activated signal transduction pathways in osteoclasts” (The Rockefeller University, priority 1999, dated 2002).

Key:
PKB = PKB activation in osteoclasts (phospho-PKB Western blot); assay type: cell-based, mouse
Method: FIG. 1. […] (A) Mature bone marrow-derived osteoclasts were stimulated for the indicated times with recombinant hCD8-TRANCE (TRANCE; 1 μg/ml). Levels of phosphorylated forms of p44/p42 ERK (p44 ERK^P and p42 ERK^P), IκBα (IκB-α^P) and PKB (PKB^P) in whole cell extracts were determined using phospho-peptide-specific antibodies as indicated in the figure. […] (B) as in (A) except the use of mature bone marrow-derived dendritic cells instead of osteoclasts.
FIG. 2. […] (A) Osteoclasts were serum starved and then pretreated for 90 min with LY294002 (10 μM), Herbimycin A (Herb. A; 10 μM), and PP1 (10 μM) inhibitors which are specific for PI3-kinase, PTKs, and Src-family kinases, respectively, were stimulated for indicated times with TRANCE (1 μg/ml). Levels of phosphorylated p44/p42 ERK, PKB, and IκB-α were determined as described in FIG. 1. Cells pretreated with vehicle (DMSO) were used as a negative control. (B) as in (A) except the use of mature bone marrow-derived dendritic cells.
Primary cells and cell lines. […] In brief, bone marrow cells from tibiae and femur of 4-6 week old mice (C57BL/6, Jackson Laboratories) were cultured overnight in media (α-MEM, 10% FCS) in the presence of CSF-1 (5 ng/ml). […] For experiments described in this study, only adherent cells were used after extensive washing. […] After allowing them adhere for 2 hours to a tissue culture dish, contaminating floater cells were washed away and mature dendritic cells were obtained by overnight culture.
Cell stimulation, cell transfection and in vitro assays. In vitro differentiated mature dendritic cells, macrophages and osteoclasts were washed to remove exogenous growth factors, cultured in media with low serum (0.5% FCS, 6 hours), then stimulated by adding various cytokines in the presence or absence of inhibitors for various times as indicated. After stimulation, the cells were washed in ice-cold PBS, and subjected to Western blot analysis or immunoprecipitation as described below.
All cells were harvested and lysed in extraction buffer (20 mM HEPES NaOH (pH 7.4), 150 mM NaCl, 1% Triton X-100, 10% glycerol, 10 mM EDTA, 1 mM Na3VO4, 1 mM phenylmethylsulfonylfluoride, 1 μg/ml leupeptin, and 0.1 U of aprotinin per ml) and cleared by centrifugation to obtain whole cell extracts. Protein assays were performed to ensure equal amounts of lysates were used in each sample.

[1] = target: T1, TRANCE-R signaling complex (Mus musculus, UniProt O35305); assay: TRANCE-R immunoprecipitation from dendritic cells: co-precipitated TRAF6/c-Src and SAM68 kinase assay; assay type: cell-based
T1 construct: the endogenous TRANCE-R was immunoprecipitated from the extracts (2 mg of total protein); endogenous in cells; host or cells: mature bone marrow-derived dendritic cells of C57BL/6 mice
Method: FIG. 5. Ligand dependant recruitment of endogenous TRAF6 and c-Src proteins to the TRANCE-R signaling complex. (A) Dendritic cells were stimulated with TRANCE (1 μg/ml) for the indicated times, lysed, and c-Src was immunoprecipitated from the extracts (400 μg total protein), using an anti-c-Src-specific monoclonal antibody (327). PTK activity of the c-Src immunoprecipitates was measured by in vitro kinase assays using SAM68 as a PTK substrate. The degree of SAM68 phosphorylation (SAM68^P) was determined by Western blot analysis using a phospho-tyrosine specific antibody (4G10) followed by densitometry. (B) Dendritic cells (3×10^7) were treated with TRANCE (1 μg/ml) for 5 minutes or left untreated (0 minutes). […] The degree of SAM68 phosphorylation (SAM68^P) was determined as in (A). The presence of endogenous TRAF6 or c-Src in the remaining α-TRANCE-R immunoprecipitates (IP) were analyzed by Western blotting using TRAF6 (H-274) and c-Src specific antibodies (N16), respectively, as indicated. […]
For the in vitro kinase-assays in FIGS. 3A, 4D, and 5B the beads were washed twice with extraction buffer and three times with kinase buffer (30 mM HEPES.NaOH (pH 7.4), 20 mM MgCl2, 2 mM MnCl2, 1 mM dithiothreitol). […] Phosphorylation of SAM68 was detected by autoradiography or by probing Western blots with 4G10. […]

With “TNF-related activation-induced cytokine [TRANCE]” the “activation of PKB in c-Src−/− osteoclasts compared with wild-type” value (PKB; TRANCE 5 μg/ml, 10 min) was “substantially reduced”, the “time by which PKB activity subsided” value (PKB; osteoclasts, TRANCE stimulation) was ≤ 60 min and the “phosphorylated form of PKB upon TRANCE stimulation” value (PKB; osteoclasts, after 5 minutes, TRANCE 1 μg/ml) was “increase”. For the same substance, the “TRAF6 and c-Src in the TRANCE-R complex” value ([1]; TRANCE 1 μg/ml 5 minutes vs untreated) was “readily detected” and the “PTK activity of the receptor complex towards SAM68” value ([1]; TRANCE 1 μg/ml 5 minutes, in vitro kinase assay) was “acquired PTK activity”.
